Source: patent publication US5153176A, “Tripeptide derivatives and protease inhibitor composition comprising the same” (Nitto Boseki Co., Ltd., priority 1990, dated 1992)
Where a name gives a salt, the structure may show the parent alone. Read-outs that look alike come from different tables or passages of the source. Where a SMILES comes first, the peptide text is derived from it. [ ]: non-standard residue; d: D form. The star is where a group is joined. Tos = Cc1ccc(S(=O)(=O)*)cc1; PhAc = O=C(Cc1ccccc1)*

Tests used:
Format in all cases: biochemical
[1] = target: T1, trypsin (Bos taurus, UniProt P00760); experiment: Assay for inhibitory activity against trypsin (synthetic substrate PS-915); conditions: for IC50: PS-915, pH 8.0, 37° C.
T1 construct: purchased Worsingstone Co. (so in the source)
T1 sequence (P00760 24-246): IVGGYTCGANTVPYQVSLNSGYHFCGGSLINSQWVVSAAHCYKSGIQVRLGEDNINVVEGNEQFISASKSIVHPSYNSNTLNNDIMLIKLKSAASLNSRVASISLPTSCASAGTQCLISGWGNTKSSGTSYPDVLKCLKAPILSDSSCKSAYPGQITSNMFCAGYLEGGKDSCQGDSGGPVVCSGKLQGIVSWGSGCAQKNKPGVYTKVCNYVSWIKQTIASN
Description: (§1) As synthetic substrate used to examine the activity of the inhibitor for inhibiting substrate decomposition with the enzyme, there were used PS-994 (H-D-Lys(Tos)-Phe-Lys-CHA.2HCl, manufactured by Nitto Boseki Co., Ltd.) for plasmin, PS-915 (H-D-Phe-Pro-Arg-CHA.2HCl, manufactured by Nitto Boseki Co., Ltd.) for thrombin and trypsin, PS-2000 (Z-D-Lys(HCO)-Gly-Arg-CHA.HCl, manufactured by Nitto Boseki Co., Ltd.) for factor Xa, S-2302 (H-D-Pro-Phe-Arg-pNA, manufactured by Kabi Co.) for kallikrein, and MUK-34: [drawing 5] for urokinase.
(§2) As plasmin, thrombin, trypsin, factor Xa, kallikrein and urokinase, there were used 0.3 CU/ml of Sankyo Color Test α2 -PI Assay Kit Standard, 1.2 NIH U/ml of Sankyo Color Test ATIII Assay Kit, 2 μg/ml of Code 3703 manufactured by Worsingstone Co., 0.25 U/ml of human factor Xa manufactured by Boehringer Mannheim, 0.12 U/ml of human plasma kallikrein manufactured by Kabi Co., and 1000 U/ml of Mochida Pharmaceutical Urokinase 60,000 (60,000 U/vial), respectively. In the case of CHA type substrate, a color-forming termination solution for Sankyo Color Test Kit was used. Enzyme reactions were carried out at 37° C.
Assay For Inhibitory Activity Against Trypsin
After 0.1 ml of an aqueous solution of the inhibitor was added to 0.5 ml of buffer (150 mM sodium chloride aqueous solution containing 150 mM Tris, pH 8.0) and the mixture was heated for 5 minutes, 0.1 ml of trypsin solution was added thereto. The mixture was reacted for 5 minutes. Furthermore, 0.1 ml of PS-915 solution (10 mM) was added thereto. The mixture was again reacted for 5 minutes. Then, 2 ml of the color-forming termination solution [containing 2.5 mg/ml of soybean trypsin inhibitor (manufactured by Sigma Co., No. T-9003)] was added to the reaction mixture. Then the mixture was allowed to stand for 10 minutes and absorbance was measured at 700 nm. IC50 was determined by the method described above.

[2] = target: T2, thrombin (Homo sapiens, UniProt P00734); experiment: Assay for inhibitory activity against thrombin (synthetic substrate PS-915); conditions: for IC50: PS-915, pH 8.5, 37° C.
T2 construct: purchased Sankyo (Sankyo Color Test ATIII Assay Kit)
Description: as §1, §2
Assay For Inhibitory Activity Against Thrombin
Each aqueous solution (0.1 ml) of the inhibitor having various concentrations was added to 0.4 ml of buffer (150 mM sodium chloride aqueous solution containing 150 mM Tris, pH 8.5) and the mixture was heated for 5 minutes. Then, 0.2 ml of the thrombin solution was added thereto and the mixture was reacted for 5 minutes. After 0.1 ml of PS-915 solution (10 mM) was added thereto, the mixture was again reacted for 5 minutes. Then, 2 ml of the color-forming termination solution was added to the reaction mixture. Then the mixture was allowed to stand for 10 minutes and absorbance was measured at 700 nm. IC50 was determined by the method described above.

[3] = target: T3, urokinase (Homo sapiens, UniProt P00749); experiment: Assay for inhibitory activity against urokinase (synthetic substrate MUK-34); conditions: for IC50: MUK-34, pH 8.20, 37° C.
T3 construct: purchased Mochida Pharmaceutical Urokinase 60,000 (60,000 U/vial)
Description: as §1, §2
Assay For Inhibitory Activity Against Urokinase
An aqueous solution (0.1 ml) of […] the inhibitor was added to 0.3 ml of buffer (150 mM sodium chloride aqueous solution containing 50 mM Tris, pH 8.20) and the mixture was heated for 5 minutes. Thereafter 0.1 ml of urokinase solution (containing 50 mM Tris, 150 mM sodium chloride aqueous solution and 0.1% BSA, pH 8.20) was added thereto, and the mixture was reacted for 5 minutes. Furthermore, 10 mM MUK-34 aqueous solution (0.1 ml) was added thereto, and the mixture was reacted for 5 minutes. Then 10% acetic acid aqueous solution (2.0 ml) was added to the mixture to terminate the reaction. Absorbance was measured at 405 nm and IC50 was determined by the method described above.

[4] = target: T4, plasmin (Homo sapiens, UniProt P00747); experiment: Assay for inhibitory activity against plasmin (synthetic substrate PS-994); conditions: for IC50: PS-994, pH 7.8, 37° C.
T4 construct: purchased Sankyo (Sankyo Color Test α2 -PI Assay Kit Standard)
T4 sequence (P00747 581-810 limits assumed, species assumed): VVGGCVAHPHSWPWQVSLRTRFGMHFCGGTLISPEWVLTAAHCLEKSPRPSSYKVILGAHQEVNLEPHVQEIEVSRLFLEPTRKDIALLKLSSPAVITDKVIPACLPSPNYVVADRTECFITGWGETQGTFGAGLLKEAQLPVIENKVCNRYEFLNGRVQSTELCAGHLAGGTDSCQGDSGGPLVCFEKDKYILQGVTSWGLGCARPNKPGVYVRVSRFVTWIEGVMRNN
T4 sequence (P00747 97-580 partner limits assumed, species assumed): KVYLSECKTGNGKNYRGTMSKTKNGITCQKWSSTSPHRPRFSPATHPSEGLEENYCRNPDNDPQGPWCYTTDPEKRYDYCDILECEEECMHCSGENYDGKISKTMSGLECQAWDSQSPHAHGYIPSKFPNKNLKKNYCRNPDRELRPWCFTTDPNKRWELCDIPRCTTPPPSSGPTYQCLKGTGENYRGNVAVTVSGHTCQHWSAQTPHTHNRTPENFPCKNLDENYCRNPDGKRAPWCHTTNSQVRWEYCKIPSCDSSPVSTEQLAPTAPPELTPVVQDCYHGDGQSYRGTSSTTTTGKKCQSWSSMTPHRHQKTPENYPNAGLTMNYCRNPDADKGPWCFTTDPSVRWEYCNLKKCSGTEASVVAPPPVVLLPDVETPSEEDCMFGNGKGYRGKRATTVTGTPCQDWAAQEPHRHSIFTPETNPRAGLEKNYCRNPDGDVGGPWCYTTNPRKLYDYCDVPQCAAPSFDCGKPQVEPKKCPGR
Description: as §1, §2
Assay For Inhibitory Activity Against Plasmin
Each aqueous solution (0.1 ml) of the inhibitor having various concentrations was added to 0.4 ml of buffer (150 mM sodium chloride aqueous solution containing 100 mM Tris, pH 7.8) and the mixture was heated for 5 minutes. After 0.2 ml of the plasmin solution was added thereto, the mixture was reacted for 5 minutes. After 0.1 ml of PS-994 solution (10 mM) was added thereto, and the mixture was again reacted for 5 minutes. Then, 2.0 ml of the color-forming termination solution was added to the reaction mixture. Then the mixture was allowed to stand for 10 minutes and absorbance was measured at 700 nm. A concentration of the inhibitor in the reaction system showing 1/2 absorbance that of the case where no inhibitor was present was determined to be IC50.

[5] = target: T5, human plasma kallikrein (Homo sapiens, UniProt P03952); experiment: Assay for inhibitory activity against kallikrein (synthetic substrate S-2302); conditions: for IC50: S-2302, pH 8.0, 37° C.
T5 construct: purchased Kabi Co
T5 sequence (P03952 20-638): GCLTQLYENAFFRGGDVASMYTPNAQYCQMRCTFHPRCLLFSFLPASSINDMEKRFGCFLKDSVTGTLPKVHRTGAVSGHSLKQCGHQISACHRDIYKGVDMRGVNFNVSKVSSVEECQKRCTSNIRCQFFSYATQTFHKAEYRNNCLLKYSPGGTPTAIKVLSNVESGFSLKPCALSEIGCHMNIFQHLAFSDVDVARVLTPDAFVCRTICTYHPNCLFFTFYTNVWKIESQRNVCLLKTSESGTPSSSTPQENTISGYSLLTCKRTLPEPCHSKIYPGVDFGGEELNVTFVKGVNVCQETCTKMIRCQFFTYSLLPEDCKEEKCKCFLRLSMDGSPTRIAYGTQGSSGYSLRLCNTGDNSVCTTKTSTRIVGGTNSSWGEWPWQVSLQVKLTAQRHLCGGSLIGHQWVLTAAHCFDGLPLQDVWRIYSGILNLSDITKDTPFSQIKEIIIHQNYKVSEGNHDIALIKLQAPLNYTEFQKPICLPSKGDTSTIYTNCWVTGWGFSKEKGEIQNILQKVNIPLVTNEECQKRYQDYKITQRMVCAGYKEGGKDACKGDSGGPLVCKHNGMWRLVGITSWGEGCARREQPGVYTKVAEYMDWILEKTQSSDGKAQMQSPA
Description: as §1, §2
Assay For Inhibitory Activity Against Kallikrein
To 0.4 ml of buffer (150 mN sodium chloride aqueous solution containing 50 mM Tris, pH 8.0) was added 0.1 ml each of aqueous solutions of the inhibitor having various concentrations and the mixture was heated for 5 minutes. Then, 0.1 ml of kallikrein solution (containing 0.5% bovine serum albumin, No. A-8022 of Sigma Co.) was added thereto, and the mixture was reacted for 5 minutes. Furthermore, 10 mM S-2302 aqueous solution (0.1 ml) was added thereto, and the mixture was again reacted for 5 minutes. Then, 5 ml of 20% acetic acid aqueous solution was added to terminate the reaction. Absorbance was measured at 405 nm and IC50 was determined by the method described above.

[6] = target: T6, human factor Xa (Homo sapiens, UniProt P00742); experiment: Assay for inhibitory activity against factor Xa (synthetic substrate PS-2000); conditions: for IC50: PS-2000, pH 8.5, 37° C.
T6 construct: purchased Boehringer Mannheim
T6 sequence (P00742 235-488 limits assumed): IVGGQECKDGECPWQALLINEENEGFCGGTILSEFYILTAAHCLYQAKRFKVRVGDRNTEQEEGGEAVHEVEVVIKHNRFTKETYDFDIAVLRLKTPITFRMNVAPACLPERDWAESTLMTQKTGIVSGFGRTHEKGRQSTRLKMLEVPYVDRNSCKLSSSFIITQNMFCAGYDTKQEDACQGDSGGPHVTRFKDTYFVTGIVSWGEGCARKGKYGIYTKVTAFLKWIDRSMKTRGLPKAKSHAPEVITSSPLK
T6 sequence (P00742 41-179 partner limits assumed): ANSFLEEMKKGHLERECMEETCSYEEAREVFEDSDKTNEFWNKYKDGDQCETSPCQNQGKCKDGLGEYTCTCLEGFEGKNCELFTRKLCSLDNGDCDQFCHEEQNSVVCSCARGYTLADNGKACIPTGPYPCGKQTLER
Description: as §1, §2
Assay For Inhibitory Activity Against Factor Xa
To 0.3 ml of buffer (150 mM sodium chloride aqueous solution containing 50 mM Tris, pH 8.5) was added 0.1 ml each of an aqueous solution of the inhibitor having various concentrations. The mixture was heated for 5 minutes. Then, 0.1 ml of factor Xa solution (150 mM solution chloride aqueous solution containing 50 mM Tris and 20 mM calcium chloride, pH 8.5) was added thereto, and the mixture was reacted for 5 minutes. Furthermore,5% polyvinylpyrrolidone solution (0.1 ml) containing 10 mM PS-2000 was added thereto, and the mixture was again reacted for 5 minutes. Then, 2 ml of the color-forming termination solution was added to the reaction mixture. Then the mixture was allowed to stand for 10 minutes and absorbance was measured at 700 nm. IC50 was determined by the method described above.

[7] = Table 3, compounds of the invention, read-out: Trypsin
[8] = Table 3, compounds of the invention, read-out: Thrombin
[9] = Table 3, compounds of the invention, read-out: Urokinase
[10] = Table 3, compounds of the invention, read-out: Plasmin
[11] = Table 3, compounds of the invention, read-out: Kallikrein
[12] = Table 3, compounds of the invention, read-out: Factor
[13] = Table 2, known compounds, read-out: IC50 Trypsin
[14] = Table 2, known compounds, read-out: IC50 Thrombin
[15] = Table 2, known compounds, read-out: IC50 Urokinase
[16] = Table 2, known compounds, read-out: IC50 Plasmin
[17] = Table 2, known compounds, read-out: IC50 Kallikrein
[18] = Table 2, known compounds, read-out: IC50 Factor Xa

| IC50 [1, 7] [µM] | IC50 [2, 8] [µM] | IC50 [4, 10] [µM] | IC50 [5, 11] [µM] | IC50 [6, 12] [µM] | Compound | IC50 [3, 9] [µM] | inhibitory activity against trypsin (in words) [1] | IC50 [1, 13] [µM] | inhibitory activity against thrombin (in words) [2] | IC50 [2, 14] [µM] | inhibitory activity against urokinase (in words) [3] | IC50 [3, 15] [µM] | inhibitory activity against plasmin (in words) [4] | IC50 [4, 16] [µM] | inhibitory activity against kallikrein (in words) [5] | IC50 [5, 17] [µM] | inhibitory activity against factor Xa (in words) [6] | IC50 [6, 18] [µM] |
| --- | --- | --- | --- | --- | --- | --- | --- | --- | --- | --- | --- | --- | --- | --- | --- | --- | --- | --- |
|  |  |  |  |  | N=C(N)NCCC[C@@H](C=O)NC(=O)[C@@H]1CCCN1C(=O)[C@H](N)Cc1ccccc1 [Example A2, D-phenylalanyl-L-prolyl-L-argininal, reference compound] |  | inhibit | 0.069 | inhibit | 0.025 | do not strongly inhibit | 42 | do not strongly inhibit | 19 | do not strongly inhibit | 31 | do not strongly inhibit | 25 |
| 0.032 | 0.2 | 0.55 | 0.04 | 3.5 | N-ε-(2-naphthalenesulfonyl)-D-lysyl-L-prolyl-L-argininal sulfate [Example 3] |  |  |  |  |  |  |  |  |  |  |  |  |  |
| 0.043 | 1.2 | 0.25 | 0.17 | 1.1 | N-α-(2-naphthalenesulfonyl)-N-ε-(p-tosyl)-D-lysyl-L-prolyl-L-argininal 1/2 sulfate [Example 20] | 6.6 |  |  |  |  |  |  |  |  |  |  |  |  |
| 0.068 | 0.93 | 2.6 | 0.2 | 15 | N=C(N)NCCC[C@@H](C=O)NC(=O)[C@@H]1CCCN1C(=O)[C@H](N)CCCCNC(=O)Cc1ccccc1 [Example 9, N-ε-phenylacetyl-D-lysyl-L-prolyl-L-argininal sulfate] (H-[dK](PhAc)-Pro-Arg-aldehyde) | 83 |  |  |  |  |  |  |  |  |  |  |  |  |
| 0.011 | 0.35 | 1 | 0.2 | 4.8 | N-ε-(p-toluoyl)-D-lysyl-L-prolyl-L-argininal sulfate [Example 7] | 7.9 |  |  |  |  |  |  |  |  |  |  |  |  |
|  |  |  |  |  | CCOC(=O)c1ccc(OC(=O)CCCCCN=C(N)N)cc1 [Example A3, reference compound] |  |  | 1.9 |  | 32 |  | 1.1 |  | 40 |  | 4.5 |  | 13 |
| 0.035 | 0.63 | 0.06 | 0.038 | 0.46 | N-α-N-ε-di(p-tosyl)-D-lysyl-L-prolyl-L-argininal1/2 sulfate [Example 17] | 3.5 |  |  |  |  |  |  |  |  |  |  |  |  |
|  |  |  |  |  | CC(=O)N[C@@H](CC(C)C)C(=O)N[C@@H](CC(C)C)C(=O)N[C@H](C=O)CCCNC(=N)N [Example A1, acetyl-L-leucyl-L-leucyl-argininal, reference compound] |  | inhibit |  |  |  | do not strongly inhibit |  | do not strongly inhibit |  | do not strongly inhibit |  | do not strongly inhibit |  |

| Compound | IC50 [1, 7] [µM] | IC50 [2, 8] [µM] | IC50 [4, 10] [µM] | IC50 [5, 11] [µM] | IC50 [6, 12] [µM] | IC50 [3, 9] [µM] | inhibitory activity against trypsin (in words) [1] | IC50 [1, 13] [µM] | inhibitory activity against thrombin (in words) [2] | IC50 [2, 14] [µM] | inhibitory activity against urokinase (in words) [3] | IC50 [3, 15] [µM] | inhibitory activity against plasmin (in words) [4] | IC50 [4, 16] [µM] | inhibitory activity against kallikrein (in words) [5] | IC50 [5, 17] [µM] | inhibitory activity against factor Xa (in words) [6] | IC50 [6, 18] [µM] |
| --- | --- | --- | --- | --- | --- | --- | --- | --- | --- | --- | --- | --- | --- | --- | --- | --- | --- | --- |
| N-ε-acetyl-D-lysyl-L-prolyl-L-argininal sulfate [Example 10] | 0.06 | 0.33 | 4.3 | 4 | 4.1 | 40 |  |  |  |  |  |  |  |  |  |  |  |  |
| Cc1ccc(S(=O)(=O)NCCCC[C@@H](N)C(=O)N2CCC[C@H]2C(=O)N[C@H](C=O)CCCNC(=N)N)cc1 [Example 1, N-ε-(p-tosyl)-D-lysyl-L-prolyl-L-argininal sulfate] (H-[dK](Tos)-Pro-Arg-aldehyde) | 0.048 | 0.3 | 1.5 | 0.029 | 6.5 | 35 |  |  |  |  |  |  |  |  |  |  |  |  |
| N-α-isobutoxycarbonyl-N-ε-(p-tosyl)-D-lysyl-L-prolyl-L-argininal 1/2 sulfate [Example 15] | 0.022 | 0.44 | 0.059 | 0.037 | 0.35 | 1.4 |  |  |  |  |  |  |  |  |  |  |  |  |
| N-ε-Ethanesulfonyl-D-lysyl-L-prolyl-L-argininal sulfate [Example 5] | 0.065 | 1.3 | 6.3 | 5.4 | 18 | 81 |  |  |  |  |  |  |  |  |  |  |  |  |
